Settings: Liquid; for vapor or sublimation pressure: Closed cell (Static) method; for Critical pressure: Direct measurement; for Critical temperature: Visual observation in an unstirred cell

C=CC(C)C [3-methyl-1-butene]
Settings | Critical pressure [kPa] | Critical temperature [K] | vapor or sublimation pressure [kPa]
– | 3463 | 451.38 | –
302.9 K | – | – | 140
323.75 K | – | – | 264
336.44 K | – | – | 374
350.65 K | – | – | 533
358.2 K | – | – | 635
371.6 K | – | – | 855
382.88 K | – | – | 1073
390.84 K | – | – | 1255
399 K | – | – | 1458
405.25 K | – | – | 1632
413.2 K | – | – | 1874
420.56 K | – | – | 2113
431.03 K | – | – | 2509
439.9 K | – | – | 2885
445.14 K | – | – | 3138
447.76 K | – | – | 3260
450.48 K | – | – | 3407
451.38 K | – | – | 3463

C=C(C)CC [2-methyl-1-butene]
Settings | Critical pressure [kPa] | Critical temperature [K] | vapor or sublimation pressure [kPa]
– | 3652 | 467.9 | –
299.27 K | – | – | 85
323.65 K | – | – | 190
341.18 K | – | – | 312
353.77 K | – | – | 431
366.06 K | – | – | 579
368.18 K | – | – | 608
375.63 K | – | – | 717
386.21 K | – | – | 898
398.5 K | – | – | 1149
409.28 K | – | – | 1402
419.65 K | – | – | 1695
429.02 K | – | – | 1985
431.24 K | – | – | 2065
438.39 K | – | – | 2316
448.46 K | – | – | 2723
457.43 K | – | – | 3118
460.55 K | – | – | 3271
463.37 K | – | – | 3409
465.49 K | – | – | 3523
467.9 K | – | – | 3652

C=CCCC [1-pentene]
Settings | Critical pressure [kPa] | Critical temperature [K] | vapor or sublimation pressure [kPa]
– | 3585 | 466.59 | –
297.86 K | – | – | 84
327.08 K | – | – | 216
336.14 K | – | – | 279
346.92 K | – | – | 372
356.19 K | – | – | 468
356.89 K | – | – | 474
366.77 K | – | – | 600
377.34 K | – | – | 757
387.42 K | – | – | 933
394.67 K | – | – | 1085
399.61 K | – | – | 1193
403.03 K | – | – | 1269
411.19 K | – | – | 1472
420.96 K | – | – | 1752
426.1 K | – | – | 1915
436.17 K | – | – | 2255
439.5 K | – | – | 2373
445.74 K | – | – | 2622
452.59 K | – | – | 2902
456.52 K | – | – | 3081
457.93 K | – | – | 3152
460.95 K | – | – | 3294
462.87 K | – | – | 3389
463.77 K | – | – | 3443
466.59 K | – | – | 3585

CC=C(C)C [2-methyl-2-butene]
Settings | Critical pressure [kPa] | Critical temperature [K] | vapor or sublimation pressure [kPa]
– | 3686 | 477.47 | –
307.63 K | – | – | 87
325.06 K | – | – | 157
340.98 K | – | – | 249
350.14 K | – | – | 321
364.85 K | – | – | 463
372.91 K | – | – | 560
380.97 K | – | – | 673
389.83 K | – | – | 811
397.89 K | – | – | 954
408.17 K | – | – | 1167
422.67 K | – | – | 1524
430.83 K | – | – | 1758
439.09 K | – | – | 2021
448.36 K | – | – | 2349
453.3 K | – | – | 2541
454.71 K | – | – | 2600
461.46 K | – | – | 2884
464.08 K | – | – | 3006
470.72 K | – | – | 3327
471.73 K | – | – | 3377
473.04 K | – | – | 3442
475.16 K | – | – | 3556
477.47 K | – | – | 3686

From the NIST ThermoML archive (doi:10.1021/acs.jced.7b00148)
